“Also recorded” adds a separate entry of the source.
How the values were obtained:
[1] = biological target: T1, dopamine D3 receptor (Homo sapiens, UniProt P35462); experiment: Off-target standard assay (radioligand binding, Eurofins Panlabs); details: read-out: Inhibition of dopamine D3 receptor (D3R)
T1 construct: purchased Eurofins Panlabs, Inc (Taipei, Taiwan, ROC)
Description: (§1) Table: List of genes examined by real-time PCR and the primer sequences used.
(§2) Genes Forward primers Reverse primers […]
(§3) Vim 5’-[…]-3’ 5’-[…]-3’ […]
(§4) Zeb2 5’-[…]-3’ 5’-[…]-3’
(§5) Twist1 5’-[…]-3’ 5’-[…]-3’
(§6) Cdh1 5’-[…]-3’ 5’-[…]-3’
(§7) Mta3 5’-[…]-3’ 5’-[…]-3’ […]
(§8) Off-target standard assays
(§9) Methods employed in this study have been adapted from the scientific literature to […]
(§10) maximize reliability and reproducibility. Reference standards were run as an integral part of […]
(§11) each assay to ensure the validity of the results obtained. Radioligand binding Assays were […]
(§12) performed under conditions described in the accompanying "Methods" section of this report […]
(§13) by Eurofins Panlabs, Inc (Taipei, Taiwan, ROC).
(§14) BPRCX807 were tested in the hERG (hERG-CHO, automated patch-clamp) assay and determined at Eurofins Panlabs (Missouri, USA). The experiment was accepted in accordance with Eurofins validation Standard Operating Procedure.
(§15) Selectivity Screening of various chemokine receptors
(§16) The results were performed by Eurofins DiscoverX (Fremont, California, USA). The

[2] = biological target: T2, bradykinin B1 receptor (Homo sapiens, UniProt P46663); experiment: as above; details: read-out: Inhibition of bradykinin B1 receptor (B1R)
T2 construct: purchased Eurofins Panlabs, Inc (Taipei, Taiwan, ROC)
T2 sequence (P46663 1-353): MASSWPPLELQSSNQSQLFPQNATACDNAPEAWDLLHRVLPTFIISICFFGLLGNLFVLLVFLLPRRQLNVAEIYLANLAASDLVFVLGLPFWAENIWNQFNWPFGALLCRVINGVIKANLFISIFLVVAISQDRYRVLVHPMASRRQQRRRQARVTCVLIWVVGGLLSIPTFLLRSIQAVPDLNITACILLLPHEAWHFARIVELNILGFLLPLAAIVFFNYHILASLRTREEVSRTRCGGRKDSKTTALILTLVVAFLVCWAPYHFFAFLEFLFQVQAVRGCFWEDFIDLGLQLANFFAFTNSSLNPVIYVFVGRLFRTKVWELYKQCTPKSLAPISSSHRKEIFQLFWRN
Description: as §1, §2, §3, §4, §5, §6, §7, §8, §9, §10, §11, §12, §13, §14, §15, §16

[3] = test system: orthotopic HCA-1 tumors; experiment: Orthotopic HCA-1 HCC model; format: in vivo, C3H mice; details: for Overall survival: n = 8
Procedure: In vivo hepatocellular carcinoma treatment studies […]
mouse PD-1 (200 µg/mouse; BioXcell, BE0146). The therapeutic efficacy and the changes in immune cells were analyzed after two weeks of treatment. The tumor volume was calculated with the following formula: volume = width × length × height/2. […]
Hematoxylin and Eosin staining
Lung tissue was cut into small pieces and fixed in 4% PFA (in PBS) overnight before being embedded in paraffin wax. The sections were then stained with hematoxylin and eosin (H&E) and observed with an inverted microscope (IX83, Olympus, Japan).
HCA-1 tumor-bearing mice were anesthetized, perfused via intracardiac injection with PBS and then sacrificed. Tumor tissues were collected and harvested in enzyme-containing DMEM cell culture medium (1.5 mg/mL of collagenase type 1A and hyaluronidase; Sigma).
The tissues were cut and ground into smaller pieces and then digested for 1 h at 37 °C to form suspensions of single tumor cells. The suspensions were filtered through a 70-µm cell strainer (Corning, Manassas, VA), and the cells were then incubated with rat anti-mouse CD16/CD32 mAbs to block Fc receptors. After washing 3 times and resuspending in cold flow buffer (1% BSA, 0.1% NaN3 in PBS), the single-cell suspensions were incubated with monoclonal anti-mouse F4/80-PE (eBiosciences, San Diego, CA), 7-AAD, CD3e-APC, CD8a-PE-Cy7, CD45-FITC, CD4-PE (BD Biosciences, East Rutherford, NJ), CD86-APC-

[4] = test system: HCA-1 cells; experiment: Western blot of phospho-ERK and phospho-AKT after CXCL12 stimulation; format: cell-based, murine; details: 20 µM, CXCL12 stimulation
Procedure: (§17) Western blotting was conducted by following standard procedures. HCA-1 or JHH-7 cells (10^5 cells per well) were seeded in 12-well plates (Costar, IL), incubated for 12 h and […]
(§18) containing (100 ng/mL) serum-free medium. After 24 h, the cells were lysed in RIPA buffer on ice for 30 min, and samples were collected and loaded with 4× Laemmli Sample buffer (Bio-Rad, Hercules, CA). The samples were separated on a 10% SDS-PAGE gels and transferred to PVDF membranes. After blocking with skim milk for 1 h, the membranes were incubated at 4°C overnight with primary antibodies against p -AKT, AKT, p-ERK, ERK (Cell Signaling, Danvers, MA) or β-actin (Sigma-Aldrich, St. Louis, MO) before incubation with HRP-conjugated secondary antibodies (Antibodies Inc., Davis, CA) for 1 h. […]
(§19) Total RNA was extracted from HCA-1 cells using the RNeasy Mini Kit (Qiagen, CA, USA). cDNAs were synthesized using the High-Capicity cDNA Reverse Transcription Kit […]
(§20) Biosystems, CA, USA) on a QPCR System. The comparative threshold cycle method was used to calculate fold change in gene expression, which was normalized to β-actin as a […]

[5] = test system: JHH-7 cells; experiment: as above; format: cell-based, human; details: 10 µM, CXCL12 stimulation
Procedure: as §17, §18, §19, §20

[6] = test system: HCA-1 cells; experiment: EMT marker expression under hypoxia (qRT-PCR); format: cell-based, murine; details: hypoxic conditions (1% oxygen)
Procedure: Signaling, Danvers, MA) or β-actin (Sigma-Aldrich, St. Louis, MO) before incubation with HRP-conjugated secondary antibodies (Antibodies Inc., Davis, CA) for 1 h. Autoradiography was conducted after ECL reagent (Thermo Scientific, Rockford, IL) was added to the […]
Reverse transcription quantitative real time PCR
Total RNA was extracted from HCA-1 cells using the RNeasy Mini Kit (Qiagen, CA, USA). cDNAs were synthesized using the High-Capicity cDNA Reverse Transcription Kit (Applied Biosystems, CA, USA). Primers specific for Slug, Fn1, Cdh2, Vim, Foxc2, Zeb1, Zeb2, Twist1, Cdh1, Mta3, Cldn3, Cldn5, β-actin and GAPDH were used, and relative gene expression was determined using Real-Time SYBR Green PCR Master Mix (Applied Biosystems, CA, USA) on a QPCR System. The comparative threshold cycle method was used to calculate fold change in gene expression, which was normalized to β-actin as a […]

[7] = alone or combined with sorafenib

T1 sequence (P35462 whole entry, species assumed): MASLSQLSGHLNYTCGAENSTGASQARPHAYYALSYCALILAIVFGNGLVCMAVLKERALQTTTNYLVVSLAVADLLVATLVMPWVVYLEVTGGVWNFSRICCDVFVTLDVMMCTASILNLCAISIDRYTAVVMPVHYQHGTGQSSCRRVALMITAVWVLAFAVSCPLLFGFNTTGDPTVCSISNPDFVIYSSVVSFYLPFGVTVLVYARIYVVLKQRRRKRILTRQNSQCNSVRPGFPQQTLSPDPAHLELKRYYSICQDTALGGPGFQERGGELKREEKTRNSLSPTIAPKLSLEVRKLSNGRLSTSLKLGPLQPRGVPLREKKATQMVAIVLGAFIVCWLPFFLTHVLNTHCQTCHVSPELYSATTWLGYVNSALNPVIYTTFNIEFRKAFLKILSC

Cc1cc(NC2CCN(C(=O)CCNCC(=O)O)CC2)nc(NCc2nc(CCCNCCCNC3CCCCC3)co2)n1 [BPRCX807]
inhibition at 10 µM [1]: 58% | inhibition at 10 µM [2]: 62% | Lung metastasis (number of lung nodules) ([3]; BPRCX807 combined with sorafenib, day 24): significantly suppress lung metastasis | Proportion of M1-like CD86+ TAMs in tumors [3, 7]: increasing the proportion | Proportion of M2-like CD206+ TAMs in tumors [3, 7]: decreasing | Tumor size reduction vs. control ([3]; combination of BPRCX807 (15 mg/kg/d SC) with anti–PD-1 (200 μg/mouse IP), day 24): more than 95% | Lung metastasis ([3]; combination with anti–PD-1): significantly prevented | Overall survival ([3]; combination with anti–PD-1 vs either alone): significantly prolonged | Tumor volume reduction ([3]; combination with sorafenib (40 mg/kg/d, oral), BPRCX807 15 mg/kg/d SC minipump): roughly 85% | Overall survival ([3]; combination with sorafenib vs BPRCX807 (P = 0.0123) or sorafenib (P = 0.0053) alone): significantly extended | F4/80+ TAMs infiltration into tumor (flow cytometry) ([3]; treatment alone): significantly decreased | CD8+ T cell infiltration into tumors ([3]; treatment alone, compared to no treatment): moderately increased | Intratumoral mean vessel density (MVD, CD31+ staining) ([3]; treatment alone, day 24): significantly decrease intratumoral MVD | Lung metastasis (number of lung nodules) ([3]; treatment alone, day 24): reduced; also recorded: significantly suppress lung metastasis | Tumor growth ([3]; treatment alone, immunotherapy study, day 24): moderately inhibiting tumor growth | CXCR4/CXCL12-triggered ERK and Akt activation [4]: suppress CXCR4/CXCL12-triggered ERK and Akt activation more significantly than its counterparts | CXCR4/CXCL12-triggered ERK and Akt activation [5]: suppress CXCR4/CXCL12-triggered ERK and Akt activation more significantly than its counterparts | Expression of epithelial markers (E-cadherin, MTA-3, CLDN3, CLDN5) [6]: alleviated a hypoxia-induced decrease in the epithelial markers | Expression of mesenchymal markers (Slug, Fibronectin, N-cadherin, Vimentin, FOXC2, Zeb1, Zeb2) ([6]; dose-dependent): restrained the increases in the expression of mesenchymal markers

— paper PMC8020795 (Proceedings of the National Academy of Sciences of the …, 2021)
